For assay [1], the target named is T1, recombinant human arginase 2 (Homo sapiens, UniProt P78540).
T1 construct: made in house; host or cells: CHO
T1 sequence (P78540 23-354): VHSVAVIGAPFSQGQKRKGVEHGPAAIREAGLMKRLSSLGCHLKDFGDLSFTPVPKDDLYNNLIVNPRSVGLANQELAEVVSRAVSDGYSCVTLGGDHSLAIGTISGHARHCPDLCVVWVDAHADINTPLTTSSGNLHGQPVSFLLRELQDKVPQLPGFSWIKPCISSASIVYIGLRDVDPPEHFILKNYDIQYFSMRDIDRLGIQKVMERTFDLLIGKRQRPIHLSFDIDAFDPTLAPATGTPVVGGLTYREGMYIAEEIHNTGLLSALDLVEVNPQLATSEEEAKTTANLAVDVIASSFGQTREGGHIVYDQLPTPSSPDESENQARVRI
Put plainly: Human arginase activity assay (urea measurement), arginase 2. It is filed as biochemical. Particulars: for selected examples class estimated from % of inhibition at 1 μM and 100 μM, * = most potent diastereoisomer or mixture of diastereoisomers, read-out: Activity Class (ARG II). The protocol:
(§1) Human Arginase Activity Assay
An enzymatic assay with recombinant human arginases 1 (Biolegend, Cat. No. 552502) and 2 (homemade in eukaryotic expression system of CHO, purified by FPLC) was used in order to assess inhibitory activity of the compounds. The assay was run in the 96-well plate format, each reaction in the total volume of 100 uL. The assay is based on urea measurement, which is a product of L-arginine enzymatic degradation. (Baggio et al. J Pharmacol. Exp. Ther. 1999, 290, 1409-1416). The color product is developed by adding a mixture of reagent A (4 mM oPA in 50 mM boric acid in 1M sulfuric acid, 0.03% Brij-35) and reagent B (4 mM NED in 50 mM boric acid in 1M sulfuric acid, 0.03% Brij-35) in equal proportions. The absorbance for each well was measured at 530 nm.
(§2) Briefly, to each well of a 96-well microtiter plate 40 μL of enzyme in the reaction assay buffer (pH 7.4, 100 mM sodium phosphate buffer, 130 mM NaCl, 1 mg/mL albumin), 50 μL of the test compound solution and 10 μL of enzyme substrate solution (L-arginine hydrochloride, natural pH 5.6, final concentration 20 mM and a cofactor—manganese chloride, final concentration 150 μM) was added. For positive control, only the enzyme and substrate were used, the negative controls contained substrate solution with assay buffer. After incubating the microtiter plate at 37° C. for 60 min 150 μL of mixed reagents A and B was added to each well to stop the reaction. Absorbance was measured (λ=530 nm) 20 minutes later, after color development. The urea production in the absence of any compound was considered the maximum arginase activity. The absorbance in the absence of arginase (background) was subtracted from all the values. The normalized OD was used to generate a concentration-response curve by plotting the percent of inhibition against log[concentration] of the compound and using regression analysis (GraphPad Prism 7.0) to compute the IC50 values.
For selected examples the activity class for ARG2 was estimated based on % of inhibition for 1 μM and 100 μM concentration of tested compounds.

The target of assay [2] is T2, recombinant human arginase 1 (Homo sapiens, UniProt P05089).
T2 construct: purchased Biolegend 552502
T2 sequence (P05089 1-322): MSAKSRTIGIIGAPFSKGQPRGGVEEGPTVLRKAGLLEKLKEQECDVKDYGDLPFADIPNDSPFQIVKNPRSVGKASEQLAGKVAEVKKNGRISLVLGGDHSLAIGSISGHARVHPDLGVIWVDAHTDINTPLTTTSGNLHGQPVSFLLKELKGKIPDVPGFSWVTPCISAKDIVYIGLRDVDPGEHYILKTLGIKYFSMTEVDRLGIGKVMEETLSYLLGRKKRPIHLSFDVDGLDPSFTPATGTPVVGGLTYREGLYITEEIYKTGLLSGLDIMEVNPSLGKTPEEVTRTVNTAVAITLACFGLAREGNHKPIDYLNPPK
Kind of assay: Human arginase activity assay (urea measurement), arginase 1. The conditions noted are these: recombinant human arginase 1, pH 7.4, 37° C., 60 min; * = value for the most potent diastereoisomer or the mixture of diastereoisomers; read-out: Activity Class (ARG I). It is filed as biochemical. The protocol: as §1
The assay was run in the 96-well plate format, each reaction in the total volume of 100 uL. The assay is based on urea measurement, which is a product of L-arginine enzymatic degradation. […] The color product is developed by adding a mixture of reagent A (4 mM oPA in 50 mM boric acid in 1M sulfuric acid, 0.03% Brij-35) and reagent B (4 mM NED in 50 mM boric acid in 1M sulfuric acid, 0.03% Brij-35) in equal proportions. The absorbance for each well was measured at 530 nm.
as §2, with “For” for “Briefly, to each well of a 96-well microtiter plate 40 μL of enzyme in the reaction assay buffer (pH 7.4, 100 mM sodium phosphate buffer, 130 mM NaCl, 1 mg/mL albumin), 50 μL of the test compound solution and 10 μL of enzyme substrate solution (L-arginine hydrochloride, natural pH 5.6, final concentration 20 mM and a cofactor—manganese chloride, final concentration 150 μM) was added. For”

Counter-ions that a name gives are not always drawn. Bounds are passed on as bounds.

With `NC1(C(=O)O)CCC(CCB(O)O)C1` (racemic) [Example 1, 1-amino-3-(2-boronoethyl)cyclopentane-1-carboxylic acid], in assay [1], the IC50 is 1 to 10 µM.
Turning to `C[C@H]1[C@H](CCB(O)O)CCC1(N)C(=O)O` (mixture of isomers) [Example 2, rac-(2S,3R)-1-amino-3-(2-boronoethyl)-2-methylcyclopentane-1-carboxylic acid], the IC50 in assay [2] and in assay [1] was over 100 µM in each case.
Consider `CC1(CCB(O)O)CCC(N)(C(=O)O)C1` (racemic) [Example 3, 1-amino-3-(2-boronoethyl)-3-methylcyclopentane-1-carboxylic acid], for which the IC50 in assay [2] and in assay [1] was over 100 µM throughout.
On to `N[C@@]1(C(=O)O)C[C@H](CCB(O)O)[C@@H](O)C1` (racemic) [Example 4, rac-(1S,3S,4S)-1-Amino-3-(2-boronoethyl)-4-hydroxycyclopentane-1-carboxylic acid hydrochloride], for which the IC50 in assay [2] and in assay [1] was 10 to 100 µM each time.
For the compound `N[C@]1(C(=O)O)C[C@H](CCB(O)O)[C@@H](O)C1` (racemic) [Example 5, rac-(1R,3S,4S)-1-Amino-3-(2-boronoethyl)-4-hydroxycyclopentane-1-carboxylic acid hydrochloride], the IC50 in assay [2] and in assay [1] was over 100 µM in each case.
As for `NC[C@H]1C[C@@](N)(C(=O)O)C[C@@H]1CCB(O)O` (racemic) [Example 7, rac-(1R,3S,4S)-1-Amino-3-(aminomethyl)-4-(2-boronoethyl)cyclopentane-1-carboxylic acid dihydrochloride], in assay [2], the IC50 is 1 to 10 µM.
For the compound `N[C@]1(C(=O)O)CCC[C@@H](CCB(O)O)C1` (racemic) [Example 11, rac-(1R,3R)-1-Amino-3-(2-boronoethyl)cyclohexane-1-carboxylic acid hydrochloride], the IC50 in assay [2] lay in the range of 10 to 100 µM.
`N[C@@]1(C(=O)O)C[C@H](CCB(O)O)CC[C@H]1O` (racemic) [Example 14, rac-(1S,2R,5R)-1-Amino-5-(2-boronoethyl)-2-hydroxycyclohexane-1-carboxylic acid hydrochloride]: the IC50 in assay [2] lay in the range of 10 to 100 µM.
The same measure, in the same setting: the figure for `CN(C)C[C@@H]1CC[C@@H](CCB(O)O)C[C@]1(N)C(=O)O` (racemic) [Example 17, rac-(1R,2S,5R)-1-Amino-5-(2-boronoethyl)-2-((dimethylamino)methyl)-cyclohexane-1-carboxylic acid dihydrochloride] is 0.001 to 0.1 µM.
As to `NC1(C(=O)O)CC(CCB(O)O)CCC1CCN1CCCC1` (racemic) [Example 25, 1-Amino-5-(2-boronoethyl)-2-(2-(pyrrolidin-1-yl)ethyl)cyclohexane-1-carboxylic acid dihydrochloride], in assay [2], the IC50 lay within 0.001 to 0.1 µM.
Consider `N[C@]1(C(=O)O)C[C@H](CCB(O)O)CC[C@H]1CN1CCC(c2ccc(Cl)cc2)CC1` (racemic) [Example 27, rac-(1R,2S,5R)-1-amino-5-(2-boronoethyl)-2-((4-(4-chlorophenyl)piperidin-1-yl)methyl)cyclohexanecarboxylic acid dihydrochloride], for which, in assay [2], the IC50 fell in the range of 0.1 to 1 µM.
With `N[C@]1(C(=O)O)C[C@H](CCB(O)O)CC[C@H]1CN1Cc2ccccc2C1` (racemic) [Example 29, rac-(1R,2S,5R)-1-amino-5-(2-boronoethyl)-2-(isoindolin-2-ylmethyl)cyclohexanecarboxylic acid dihydrochloride], in assay [2], the IC50 was in the range of 0.1 to 1 µM.
Take `CN(C)C[C@@H]1C[C@@H](CCB(O)O)CC(N)(C(=O)O)C1` (mixture of isomers) [Example 55, rac-(3R,5R)-1-amino-3-(2-boronoethyl)-5-((dimethylamino)methyl)cyclohexanecarboxylic acid dihydrochloride]: the IC50 in assay [2] fell in the range of 1 to 10 µM.
As to `N[C@@]1(C(=O)O)CNC[C@H](CCB(O)O)C1` (racemic) [Example 58, rac-(3R,5R)-3-amino-5-(2-boronoethyl)piperidine-3-carboxylic acid], in assay [2], the IC50 is 10 to 100 µM.
`N[C@@]1(C(=O)O)COC[C@H](CCB(O)O)C1` (racemic) [Example 60, rac-(3R,5R)-3-amino-5-(2-boronoethyl)tetrahydro-2H-pyran-3-carboxylic acid hydrochloride]: in assay [2], the IC50 is 10 to 100 µM.
With `CN(C)C1CCC(CCB(O)O)CC1(N)C(=O)O` (racemic) [Example 64, rac-(1R,5R)-1-amino-5-(2-boronoethyl)-2-(dimethylamino)cyclohexane-1-carboxylic acid dihydrochloride], the IC50 in assay [2] was in the range of 10 to 100 µM.
In the case of `CN(C)CC1CC(CCB(O)O)CC1(N)C(=O)O` (racemic) [Example 67, 1-amino-4-(2-boronoethyl)-2-((dimethylamino)methyl)cyclopentane-1-carboxylic acid], the IC50 in assay [2] lay in the range of 10 to 100 µM.
On the same count and under the same terms, the figure for `NC1(C(=O)O)CC(CCB(O)O)N(Cc2ccccc2)C1` (stereo not shown) [Example 8, 3-Amino-1-benzyl-5-(2-boronoethyl)pyrrolidine-3-carboxylic acid dihydrochloride] is over 100 µM; for `NC1(C(=O)O)CC(CCB(O)O)CCC1CN1CCOCC1` (stereo not shown) [Example 20, 1-Amino-5-(2-boronoethyl)-2-(morpholinomethyl)cyclohexane-1-carboxylic acid dihydrochloride] it is 1 to 10 µM; for `N[C@]1(C(=O)O)C[C@H](CCB(O)O)CC[C@H]1CN1CCCC1` [Example 23, (1R,2S,5R)-1-Amino-5-(2-boronoethyl)-2-(pyrrolidin-1-ylmethyl)-cyclohexane-1-carboxylic acid dihydrochloride] it is 0.001 to 0.1 µM.
As for `CC([C@@H]1CC[C@@H](CCB(O)O)C[C@]1(N)C(=O)O)N(C)C` (stereo partly drawn) [Example 42, (1R,2S,5R)-1-amino-5-(2-boronoethyl)-2-(1-(dimethylamino)ethyl)cyclohexanecarboxylic acid dihydrochloride], in assay [2], the IC50 lay within 10 to 100 µM.
`COC(=O)[C@@]1(N)C[C@H](CCB(O)O)CC[C@H]1CN(C)C` [Example 43, (2-((1R,3R,4S)-3-amino-4-((dimethylamino)methyl)-3-(methoxycarbonyl)cyclohexyl)ethyl)boronic acid dihydrochloride]: the IC50 in assay [2] was 10 to 100 µM.
Consider `NC1(C(=O)O)CC(CCB(O)O)CCC1CO` (stereo not shown) [Example 49, 1-amino-5-(2-boronoethyl)-2-(hydroxymethyl)cyclohexanecarboxylic acid hydrochloride], for which, in assay [2], the IC50 lay in the range of 1 to 10 µM.
`NCC1CC(CCB(O)O)CC1(N)C(=O)O` (stereo not shown) [Example 66, 1-amino-2-(aminomethyl)-4-(2-boronoethyl)cyclopentane-1-carboxylic acid dihydrochloride]: the IC50 in assay [2] lay within 0.1 to 1 µM.

(Values after patent US12053451B2, “Arginase inhibitors and their therapeutic applications” (OncoArendi Therapeutics S.A., priority 2016, dated 2024).)
